Experiments:
Acetylcholinesterase = Acetylcholinesterase (Homo sapiens, UniProt P22303); test: DRUGMATRIX: Acetylcholinesterase enzyme inhibition (substrate: acetylthiocholine); type: cell-based, HEK293; conditions: Not Active = under 50% inhibition at 10 µM
[1] = target: T1, 3-hydroxy-3-methylglutaryl-coenzyme A reductase (Homo sapiens, UniProt P04035); set-up: species or system Escherichia coli;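 further: enzyme inhibition assay of HMG-CoA reductase using radiolabeled [14C]HMG-CoA as substrate; in other assays of this panel Not Active means under 50% inhibition at 10 µM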
T1 sequence (P04035 whole entry): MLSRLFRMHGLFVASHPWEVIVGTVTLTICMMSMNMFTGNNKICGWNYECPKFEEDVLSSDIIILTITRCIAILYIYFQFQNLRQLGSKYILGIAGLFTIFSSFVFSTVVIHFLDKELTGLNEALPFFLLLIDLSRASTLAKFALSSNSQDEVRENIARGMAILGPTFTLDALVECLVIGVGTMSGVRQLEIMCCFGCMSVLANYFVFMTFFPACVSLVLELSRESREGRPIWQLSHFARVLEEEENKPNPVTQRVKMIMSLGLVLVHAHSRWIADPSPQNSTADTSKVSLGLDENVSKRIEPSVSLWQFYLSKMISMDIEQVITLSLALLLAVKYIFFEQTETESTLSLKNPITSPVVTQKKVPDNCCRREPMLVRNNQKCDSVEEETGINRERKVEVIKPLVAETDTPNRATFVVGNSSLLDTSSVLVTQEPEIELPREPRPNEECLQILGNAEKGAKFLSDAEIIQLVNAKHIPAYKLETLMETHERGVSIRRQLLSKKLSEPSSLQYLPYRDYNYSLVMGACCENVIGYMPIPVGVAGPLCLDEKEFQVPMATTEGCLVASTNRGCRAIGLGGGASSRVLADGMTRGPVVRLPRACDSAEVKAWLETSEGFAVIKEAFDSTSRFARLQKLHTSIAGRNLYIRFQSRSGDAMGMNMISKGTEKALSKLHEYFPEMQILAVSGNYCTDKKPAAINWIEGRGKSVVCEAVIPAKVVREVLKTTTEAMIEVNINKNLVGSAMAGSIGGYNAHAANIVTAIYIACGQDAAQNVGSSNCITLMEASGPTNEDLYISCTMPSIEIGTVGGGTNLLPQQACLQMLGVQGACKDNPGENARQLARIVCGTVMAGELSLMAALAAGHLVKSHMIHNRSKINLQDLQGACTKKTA

Glycine receptor = Glycine receptor (Rattus norvegicus, UniProt P22771+P24524+P07727+P20781); type: cell membranes, Wistar, Spinal cord, Membrane; further: in other assays of this panel Not Active means under 50% inhibition at 10 µM
Melanocortin receptor 4 = Melanocortin receptor 4 (Homo sapiens, UniProt P32245); type: cell membranes, Membrane; conditions: hek293; further: in other assays of this panel Not Active means under 50% inhibition at 10 µM
Cytochrome P450 2C9 = Cytochrome P450 2C9 (Homo sapiens, UniProt P11712); conditions: bti-tn-5b1-4; further: in other assays of this panel Not Active means under 50% inhibition at 10 µM
[2] = DRUGMATRIX: beta-Lactamase enzyme inhibition (substrate: Nitrocefin); set-up: species or system Bacillus cereus; conditions: Not Active = under 50% inhibition at 10 µM
[3] = target: Kappa-type opioid receptor (Homo sapiens, UniProt P41145); test: DRUGMATRIX: Opiate kappa (OP2, KOP) radioligand binding (ligand: [3H] Diprenorphine); type: cell membranes, HEK293, Membrane; conditions: hek293; Not Active = under 50% inhibition at 10 µM
[4] = target: T2, Alpha-1B adrenergic receptor (Rattus norvegicus, UniProt P15823); test: DRUGMATRIX: Alpha-1B adrenergic receptor radioligand binding (ligand: prazosin); type: cell membranes, Wistar, Liver, Membrane; conditions: Not Active = under 50% inhibition at 10 µM
T2 sequence (P15823 whole entry): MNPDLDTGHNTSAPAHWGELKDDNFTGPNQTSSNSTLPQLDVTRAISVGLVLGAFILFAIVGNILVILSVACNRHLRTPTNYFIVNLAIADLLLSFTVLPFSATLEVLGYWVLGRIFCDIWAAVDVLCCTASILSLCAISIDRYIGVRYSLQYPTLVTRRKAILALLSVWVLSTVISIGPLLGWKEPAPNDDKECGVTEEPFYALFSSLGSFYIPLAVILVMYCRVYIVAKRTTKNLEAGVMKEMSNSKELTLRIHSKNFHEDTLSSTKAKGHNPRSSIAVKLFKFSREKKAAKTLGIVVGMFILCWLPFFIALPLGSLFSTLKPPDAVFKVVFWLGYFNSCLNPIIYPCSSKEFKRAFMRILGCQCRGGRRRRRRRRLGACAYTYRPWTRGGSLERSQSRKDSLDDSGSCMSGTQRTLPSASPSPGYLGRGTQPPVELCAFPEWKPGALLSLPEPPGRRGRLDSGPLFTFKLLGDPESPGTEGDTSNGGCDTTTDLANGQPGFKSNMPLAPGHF

Chain of Cytochrome P450 2C9 (P11712 whole entry): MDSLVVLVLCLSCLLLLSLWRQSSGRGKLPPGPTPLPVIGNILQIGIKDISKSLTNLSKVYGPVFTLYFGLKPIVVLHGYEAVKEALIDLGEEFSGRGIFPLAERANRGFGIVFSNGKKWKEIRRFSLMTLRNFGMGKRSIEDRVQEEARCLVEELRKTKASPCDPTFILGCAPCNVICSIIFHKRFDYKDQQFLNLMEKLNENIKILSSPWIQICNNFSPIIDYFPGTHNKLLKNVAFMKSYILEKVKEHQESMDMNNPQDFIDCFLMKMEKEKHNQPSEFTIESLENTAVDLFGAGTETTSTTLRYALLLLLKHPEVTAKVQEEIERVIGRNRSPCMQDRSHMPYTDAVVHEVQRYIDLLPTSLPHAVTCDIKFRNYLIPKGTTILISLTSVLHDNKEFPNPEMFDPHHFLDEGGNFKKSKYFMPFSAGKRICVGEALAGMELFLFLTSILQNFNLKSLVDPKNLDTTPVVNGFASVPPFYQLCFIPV
Chain of Acetylcholinesterase (P22303 whole entry): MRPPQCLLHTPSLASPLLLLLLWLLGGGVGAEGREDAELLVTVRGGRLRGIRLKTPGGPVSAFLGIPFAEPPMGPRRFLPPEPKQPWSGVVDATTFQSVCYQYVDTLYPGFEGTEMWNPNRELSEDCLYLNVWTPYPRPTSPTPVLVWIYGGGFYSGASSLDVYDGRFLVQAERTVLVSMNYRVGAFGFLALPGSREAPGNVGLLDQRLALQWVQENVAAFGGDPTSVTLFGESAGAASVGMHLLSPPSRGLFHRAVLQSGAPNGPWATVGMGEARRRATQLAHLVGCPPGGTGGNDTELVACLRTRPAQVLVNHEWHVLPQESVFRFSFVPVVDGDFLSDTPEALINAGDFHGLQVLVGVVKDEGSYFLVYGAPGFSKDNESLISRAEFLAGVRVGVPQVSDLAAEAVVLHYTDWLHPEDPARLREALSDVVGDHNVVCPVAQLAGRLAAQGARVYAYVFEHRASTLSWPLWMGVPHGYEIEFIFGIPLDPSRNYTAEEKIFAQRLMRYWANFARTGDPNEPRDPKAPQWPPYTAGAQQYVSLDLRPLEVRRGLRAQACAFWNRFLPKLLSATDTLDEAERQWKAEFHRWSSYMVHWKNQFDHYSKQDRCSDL
Chain of Melanocortin receptor 4 (P32245 whole entry): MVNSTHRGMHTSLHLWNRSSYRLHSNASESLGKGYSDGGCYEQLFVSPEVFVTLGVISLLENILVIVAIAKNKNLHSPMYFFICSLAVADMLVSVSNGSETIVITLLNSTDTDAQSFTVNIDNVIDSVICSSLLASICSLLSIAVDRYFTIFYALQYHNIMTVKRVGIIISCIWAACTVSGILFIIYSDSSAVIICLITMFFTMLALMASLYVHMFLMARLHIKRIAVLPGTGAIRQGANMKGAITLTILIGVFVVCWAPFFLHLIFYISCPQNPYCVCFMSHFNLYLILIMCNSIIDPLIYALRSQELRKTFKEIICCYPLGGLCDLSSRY
Chain of Kappa-type opioid receptor (P41145 whole entry): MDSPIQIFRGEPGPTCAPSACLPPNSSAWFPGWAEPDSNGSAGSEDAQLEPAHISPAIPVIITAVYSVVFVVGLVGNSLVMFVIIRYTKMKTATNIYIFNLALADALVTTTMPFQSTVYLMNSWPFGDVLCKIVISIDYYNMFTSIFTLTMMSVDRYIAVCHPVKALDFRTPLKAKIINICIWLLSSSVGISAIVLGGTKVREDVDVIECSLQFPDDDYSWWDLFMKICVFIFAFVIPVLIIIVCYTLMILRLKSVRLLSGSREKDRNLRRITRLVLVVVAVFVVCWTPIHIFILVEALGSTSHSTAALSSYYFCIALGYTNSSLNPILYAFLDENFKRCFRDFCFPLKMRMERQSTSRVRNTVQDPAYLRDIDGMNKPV

Row | SMILES | IC50 (Acetylcholinesterase; hek293) | IC50 [1] | IC50 (Glycine receptor) | IC50 (Melanocortin receptor 4) | IC50 (Cytochrome P450 2C9) | Ki (Cytochrome P450 2C9) | IC50 [2] | Ki [2] | IC50 [3] | IC50 [4] | IC50 (Acetylcholinesterase; read-out: IC50)
1 | Nn1nnc2ccccc21 | Not Active | Not Active | Not Active | Not Active | Not Active | Not Active | Not Active | Not Active | Not Active | Not Active | –
2 | CC[C@]1(O)CC[C@H]2[C@@H]3CCC4=CCCC[C@@H]4[C@H]3CC[C@@]21C | – | Not Active | Not Active | Not Active | Not Active | Not Active | Not Active | Not Active | Not Active | Not Active | 6.5 µM
3 | CCOC(=O)[C@H](CCc1ccccc1)N[C@@H](C)C(=O)N1Cc2ccccc2C[C@H]1C(=O)O | Not Active | Not Active | Not Active | Not Active | Not Active | Not Active | Not Active | Not Active | Not Active | Not Active | –
4 | CCOC(=O)[C@H](CCc1ccccc1)N[C@@H](C)C(=O)N1CCC[C@H]1C(=O)O | Not Active | Not Active | Not Active | Not Active | Not Active | Not Active | Not Active | Not Active | Not Active | Not Active | –
5 | C=C1/C(=C\C=C2/CCC[C@]3(C)[C@@H]([C@H](C)CCCC(C)C)CC[C@@H]23)C[C@@H](O)C[C@@H]1O [ALFACALCIDOL] | Not Active | Not Active | Not Active | Not Active | Not Active | Not Active | Not Active | Not Active | Not Active | Not Active | –
6 | CCCCCC[C@H]1C(=O)O[C@H](C)[C@H](NC(=O)c2cccc(NC=O)c2O)C(=O)O[C@@H](C)[C@@H]1OC(=O)CC(C)C [ANTIMYCIN A] | Not Active | Not Active | Not Active | Not Active | Not Active | Not Active | Not Active | Not Active | Not Active | Not Active | –
7 | CO[C@H]1[C@@H](O)[C@H](N)[C@@H](O[C@H]2O[C@H]([C@H](C)N)CC[C@H]2N)[C@H](O)[C@@H]1N(C)C(=O)CN [ASTROMICIN] | Not Active | Not Active | Not Active | Not Active | Not Active | Not Active | Not Active | Not Active | Not Active | Not Active | –
8 | [N-]=[N+]=CC(=O)OC[C@H](N)C(=O)O [AZASERINE] | Not Active | Not Active | Not Active | Not Active | Not Active | Not Active | Not Active | Not Active | Not Active | Not Active | –
9 | CC[C@H]1OC(=O)[C@H](C)[C@@H](O[C@H]2C[C@@](C)(OC)[C@@H](O)[C@H](C)O2)[C@H](C)[C@@H](O[C@@H]2O[C@H](C)C[C@H](N(C)C)[C@H]2O)[C@](C)(O)C[C@@H](C)CN(C)[C@H](C)[C@@H](O)[C@]1(C)O [AZITHROMYCIN] | Not Active | Not Active | Not Active | Not Active | Not Active | Not Active | Not Active | Not Active | Not Active | Not Active | –
10 | CC(C)(C)c1ccc(S(=O)(=O)/C=C/C#N)cc1 [BAY-11-7085] | Not Active | Not Active | Not Active | Not Active | Not Active | Not Active | Not Active | Not Active | Not Active | Not Active | –
11 | O=c1cc(-c2ccccc2)oc2ccc3ccccc3c12 [BETA-NAPHTHOFLAVONE] | Not Active | Not Active | Not Active | Not Active | Not Active | Not Active | Not Active | Not Active | Not Active | Not Active | –
12 | CS(=O)(=O)OCCCCOS(C)(=O)=O [BUSULFAN] | Not Active | Not Active | Not Active | Not Active | Not Active | Not Active | Not Active | Not Active | Not Active | Not Active | –
13 | O=C(/C=C/c1ccc(O)c(O)c1)OCCc1ccccc1 [CAFFEIC ACID PHENETHYL ESTER] | Not Active | Not Active | Not Active | Not Active | Not Active | Not Active | Not Active | Not Active | Not Active | Not Active | –
14 | COc1cc(CNC(=O)CCCC/C=C/C(C)C)ccc1O [CAPSAICIN] | Not Active | Not Active | Not Active | Not Active | Not Active | Not Active | Not Active | Not Active | Not Active | Not Active | –
15 | NC(=O)N1c2ccccc2C=Cc2ccccc21 [CARBAMAZEPINE] | Not Active | Not Active | Not Active | Not Active | Not Active | Not Active | Not Active | Not Active | Not Active | Not Active | –
16 | CCOC(=O)n1ccn(C)c1=S [CARBIMAZOLE] | Not Active | Not Active | Not Active | Not Active | Not Active | Not Active | Not Active | Not Active | Not Active | Not Active | –
17 | Oc1ccccc1O [CATECHOL] | Not Active | Not Active | Not Active | Not Active | Not Active | Not Active | Not Active | Not Active | Not Active | Not Active | –
18 | CO[C@@]1(NC(=O)CSCC#N)C(=O)N2C(C(=O)O)=C(CSc3nnnn3C)CS[C@@H]21 [CEFMETAZOLE] | Not Active | Not Active | Not Active | Not Active | Not Active | Not Active | Not Active | Not Active | Not Active | Not Active | –
19 | CC(=O)O[C@]1(C(C)=O)CC[C@H]2[C@@H]3C=C(C)C4=CC(=O)CC[C@]4(C)[C@H]3CC[C@@]21C [MEGESTROL ACETATE] | Not Active | Not Active | Not Active | Not Active | – | – | Not Active | Not Active | Not Active | Not Active | –
20 | CN(Cc1cnc2nc(N)nc(N)c2n1)c1ccc(C(=O)N[C@@H](CCC(=O)O)C(=O)O)cc1 [METHOTREXATE] | Not Active | Not Active | Not Active | Not Active | – | – | Not Active | Not Active | Not Active | Not Active | –
21 | O=C(O)c1cccnc1 [NIACIN] | Not Active | Not Active | Not Active | Not Active | – | – | Not Active | Not Active | Not Active | Not Active | –
22 | OCCN1CCN(CCCN2c3ccccc3Sc3ccc(Cl)cc32)CC1 [PERPHENAZINE] | Not Active | Not Active | Not Active | Not Active | – | – | Not Active | Not Active | Not Active | Not Active | –
